The values below come from PMC6695598, “The Development of Tetrazole Derivatives as Protein Arginine Methyltransferase I (PRMT I) Inhibitors” (International Journal of Molecular Sciences, 2019).

The term IC50 denotes the concentration that gives 50% inhibition. As a reminder, the inhibition is the share of the control response that was lost under treatment.

For one data set, the system named is PRMT6. Set-up: method as in PMID 26598975. The note with it: cited from earlier work.
For data set [1], the target named is T1, PRMT1 (Homo sapiens, UniProt Q99873). Briefly: Mechanism of Action (MOA) study, competition with SAM and peptide on PRMT1. In kind it is biochemical. The note with it: IC50 at varied SAM (0.5-60× Km) or peptide (0.5-100× Km) concentrations. From the text:
Both PRMT1 and PRMT6 are Type I PRMTs, and their structures share the high degree similarity. […] Based on the crystal structure, it can be predicated that MS023 should be a competitive inhibitor against the peptide. […] There are potential explanations for the current contradictory results. First, the main binding effects of the substrate were from the outside regions of arginine-binding site.
The method is consistent with the procedure described above.

Another data set relates to MDA-MB-231 cells. Briefly: Western blotting of PRMT1 and Wnt pathway markers. In kind it is cell-based. The procedure: MDA-MB-231 cells were maintained on 6-well plates at the appropriate density. […] Total cell lysates were separated by SDS-PAGE and transferred onto nitrocellulose membranes. The blots were blocked with 5% nonfat milk for 30 min and the target proteins were probed with appropriate specific antibody overnight at 4 °C, respectively. The blots were washed with TBST for three times and then incubated with anti-rabbit secondary antibody (HRP conjugated) for 1 h. After another three washes, bands were detected in a ChemiScope3400 imaging system using ECL substrate (Millipore, Burlington, MS, USA). Primary antibodies used were as follows: anti-PRMT1 (Cell Signaling Technology no.2449, Danvers, MA, USA), anti-ADMA (Cell Signaling Technology no.13522), anti-SDMA (Cell Signaling Technology no.13222), anti-GAPDH (Cell Signaling Technology no. 5174), anti-H4R3me2a Abcam, ab9231), Wnt3a (Cell Signaling Technology no. 2721s), anti-DDAH (Abcam, ab9231, Cambridge, UK), Wnt5a/b (Cell Signaling Technology no. 2530s), β-catenin (Cell Signaling Technology no. 8480s), MMP9 (Cell Signaling Technology no.1366s). The results were obtained from multiple membranes. No significant differences were observed among loading controls. Therefore, we presented the representative loading control blot image in the figure.
In general terms: Immunoblotting shows a protein as a band on a membrane.

Data set [2] concerns the target T1, PRMT1. Briefly: radioactive PRMT1 methylation inhibition assay ([3H]-SAM, biotinylated histone H4 peptide). In kind it is biochemical. As for the experimental part:
A series of 1,5-substituded tetrazole derivatives were synthesized to investigate the structure-activity relationship (SAR) of PRMT1 inhibitors (Table 1). […] The chemical modification of these compounds is mainly focused on the substituted benzene ring. The initial screening of these compounds was carried out using the radioactive PRMT1 methylation inhibition assay, which measured the amount of methyl groups that transferred from [^3H]-SAM to a biotinylated histone H4 peptide (ac- […](Biotin)). […] In the second step, the Group II compounds were designed and synthesized by extending the ethylenediamine side chain to propylenediamine.
(§1) The enzyme inhibitory activities were measured by the radioisotope assay in ShangHai Chempartner Co. Ltd. according to the standard protocol. The similar procedure was recently performed in the publication The radioactive methylation assay was performed in 1× assay buffer (modified Tris buffer) system containing enzyme (PRMT1/5), peptide and [^3H]-SAM solution and compounds on the assay plate. […] Afterwards, the reaction was stopped with addition of 5 μL cold SAM solution to per well. Then, 25 μL of volume per well was transferred to Flashplate from assay plate and incubated for 1 h minimum at room temperature. Finally, the Flashplate was washed with dH2O and 0.1% Tween-20 three times and then reading plate in Mi crobeta using program ^3H-Flashplate. The data was analyzed in GraphPad Prism 5 to obtain IC50 values.

Data set [3] can be described thus: WST-8/CCK8 cell viability assay. In kind it is cell-based. The note with it: human, MDA-MB-231 breast cancer cells, read-out: IC50 against MDA-MB-231 (cytotoxicity). As for the experimental part: The MDA-MB-231 cell line used in this study was obtained from the American Type Culture Collection (ATCC, Rockville, MD, USA), and was grown in dulbecco’s modified eagle medium (DMEM, Gibco, Thermo Fisher Scientific, Waltham, MA, USA) supplemented with 10% fetal bovine serum (FBS) (Gibco). The cells were incubated at 37 °C and 5% CO2.
The cytotoxicity was determined by the CCK8 assay. Briefly, MDA-MB-231 cells (5 × 10^3 cells/well) were seeded in 96-well plates in DMEM containing 10% FBS and grew for 24 h. The exponentially growing cells were incubated with various concentrations of compounds for 48h/72h in serum free DMEM at 37 °C (5% CO2, 95% humidity). CCK8 reagent (10 μL) was added to each well and incubated for further 2 h, and then the absorbance was analyzed in a multiwell-plate reader (BioTek ELx800) at 450 nm.
On the technique in general: Formazan colour is commonly taken as a measure of viable cells.

For the next data set, the target named is PRMT5 (Homo sapiens, UniProt O14744). Briefly: radioactive methylation assay, PRMT5 selectivity. In kind it is biochemical. As for the experimental part: as §1
[4] abbreviates: MDA-MB-231, 48 h, top concentration 200 μM.

Entries after “also recorded” stand apart in the source; their conditions may differ. Where only a bound is given, the exact number is not on record here.

T1 sequence (Q99873 whole entry): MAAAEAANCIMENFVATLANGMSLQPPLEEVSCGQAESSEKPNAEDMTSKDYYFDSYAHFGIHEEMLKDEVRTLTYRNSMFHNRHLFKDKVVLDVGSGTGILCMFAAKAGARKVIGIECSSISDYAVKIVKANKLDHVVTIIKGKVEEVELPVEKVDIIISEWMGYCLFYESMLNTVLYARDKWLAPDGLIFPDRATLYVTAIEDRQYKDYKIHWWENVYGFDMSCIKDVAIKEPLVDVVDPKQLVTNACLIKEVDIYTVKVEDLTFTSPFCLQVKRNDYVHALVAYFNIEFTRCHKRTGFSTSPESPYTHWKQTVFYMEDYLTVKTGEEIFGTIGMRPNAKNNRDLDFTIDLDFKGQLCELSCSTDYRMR
Chain of PRMT5 (O14744 whole entry, species assumed): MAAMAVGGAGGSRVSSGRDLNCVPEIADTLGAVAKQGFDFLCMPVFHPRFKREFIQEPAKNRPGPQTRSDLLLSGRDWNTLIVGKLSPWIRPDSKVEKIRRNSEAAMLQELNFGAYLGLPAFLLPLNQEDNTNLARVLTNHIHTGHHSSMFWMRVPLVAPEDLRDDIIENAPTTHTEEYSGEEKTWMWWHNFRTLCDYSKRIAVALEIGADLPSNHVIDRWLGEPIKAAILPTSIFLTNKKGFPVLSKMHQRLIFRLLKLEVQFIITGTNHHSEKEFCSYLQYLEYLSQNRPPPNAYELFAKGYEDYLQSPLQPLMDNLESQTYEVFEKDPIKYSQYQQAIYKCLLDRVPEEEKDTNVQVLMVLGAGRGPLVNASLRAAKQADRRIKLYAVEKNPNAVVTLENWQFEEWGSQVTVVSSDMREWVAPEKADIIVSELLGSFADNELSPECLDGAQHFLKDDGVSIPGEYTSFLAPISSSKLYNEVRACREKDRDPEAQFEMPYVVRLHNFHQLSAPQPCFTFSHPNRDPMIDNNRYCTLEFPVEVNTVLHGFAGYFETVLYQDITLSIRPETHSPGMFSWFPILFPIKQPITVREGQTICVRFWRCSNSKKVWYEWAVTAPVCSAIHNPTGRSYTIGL
Chain of PRMT5 (Q9BQA1 whole entry partner, species assumed): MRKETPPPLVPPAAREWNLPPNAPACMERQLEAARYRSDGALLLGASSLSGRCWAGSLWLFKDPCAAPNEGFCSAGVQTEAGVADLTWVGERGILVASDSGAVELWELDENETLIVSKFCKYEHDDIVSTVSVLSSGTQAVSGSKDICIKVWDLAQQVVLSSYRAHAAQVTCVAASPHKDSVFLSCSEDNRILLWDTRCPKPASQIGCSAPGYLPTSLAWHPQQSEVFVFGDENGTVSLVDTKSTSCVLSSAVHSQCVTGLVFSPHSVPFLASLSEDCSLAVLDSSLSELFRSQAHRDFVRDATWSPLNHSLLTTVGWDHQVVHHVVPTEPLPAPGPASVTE

For the compound `CC(C)Oc1ccc(-c2c[nH]cc2CN(C)CCN)cc1` [MS023], the “mode of inhibition with respect to SAM and peptide substrate” value in the data set with PRMT6 is “noncompetitive with either SAM or peptide substrate”.
For the compound `CNCCN(C)Cc1nnnn1-c1ccc(OC(C)C)cc1.Cl` [9a, N,N’-Dimethyl-N’-(1-(4-isopropoxyphenyl)-1H-tetrazol-5-yl-methyl)ethylenediamine hydrochloride], at PRMT1 [1], the “mode of inhibition with respect to SAM and peptide substrate” value is “noncompetitive inhibitor for either the cofactor SAM or peptide substrate; also recorded: non-competitive pattern with respect to either SAM or substrate arginine; also recorded: did not compete with either SAM or peptides”. Further, in the data set on MDA-MB-231 cells (setting [4]), the “global level of ADMA” value is “significantly decreased in a concentration-dependent manner; also recorded: significantly decreased in concentration-dependent manners”, the “global level of H4R3me2as” value was “decreased the global level of H4R3me2as in a concentration-dependent manner; also recorded: significantly decreased in concentration-dependent manners”, the “global level of SDMA” value is on record as “not significantly affected; also recorded: not significantly changed” and the “level of DDAH” value is reported as “significantly decreased in a concentration-dependent manner; also recorded: significantly decreased in concentration-dependent manners”. In the data set with MDA-MB-231 cells (setting [4]), the “level of Wnt3a” value was “significantly decreased in concentration-dependent manners”, the “level of Wnt5a” value is recorded as “did not change significantly; also recorded: not changed” and the “level of β-catenin” value is “significantly decreased in concentration-dependent manners”. In addition, the “cell damage during the western blotting experiment” value in the data set on MDA-MB-231 cells (MDA-MB-231, top concentration 200 μM) is recorded as “no obvious cell damage was observed”. In addition, the IC50 on PRMT1 [2] is 3.5 µM. The inhibition at 10 µM on PRMT1 [2] (10 μM compound, initial screening) is over 47%. Also, the IC50 at 48 h in data set [3] (48 h) is over 500 µM. In addition, the IC50 at 72 h in data set [3] (72 h) is 541 ± 6.5 µM. Further, the IC50 at PRMT5 was over 100 µM.
